Results from patent publication US20100227880A1, “CHEMICAL COMPOUNDS” (priority 2006, published 2010).

Test system: HIV-1 Ba-L or HIV-1 IIIB infection of the HOS cell line (expressing hCXCR4/hCCR5/hCD4/pHIV-LTR-luciferase)
Test: HOS HIV-1 Infectivity Assay
Format: cell-based
Settings: Human immunodeficiency virus 1, HOS cells, luciferase readout, strain not given, read-out: Activity Level
Procedure: Compounds were profiled against two HIV-1 viruses, the M-tropic (CCR5 utilizing) Ba-L strain and the T-tropic (CXCR4 utilizing) IIIB strain. Ba-L was propagated in either peripheral blood lymphocytes or SupT1/CCR5+/CXCR4+ cells. IIIB was propagated in peripheral blood lymphocytes. Compounds were tested for their ability to block infection of the HOS cell line (expressing hCXCR4/hCCR5/hCD4/pHIV-LTR-luciferase) by either HIV-1 Ba-L or HIV-1 IIIB. Compound cytotoxicity was also examined in the absence of virus addition.
HOS cells (expressing hCXCR4/hCCR5/hCD4/pHIV-LTR-luciferase) were harvested and diluted in Dulbeccos modified Eagles media supplemented with 2% FCS to a concentration of 120,000 cells/ml. The cells were plated into 96-well plates (50 μl per well) and the plates were placed in a tissue culture incubator (370° C.; 5% CO2/95% air) for a period of 24 h.
Subsequently, 50 μl of the desired drug solution (2 times the final concentration) was added to each well and the plates were returned to the tissue culture incubator ([…]; 5% CO2/95% air) for 1 h. Following this incubation, 60 μl of diluted virus (4 times the final concentration) was added to 60 μl of 2× the final desired concentration of the compound and 100 μl this compound/virus mix was added to each well (approximately 2 million RLU per well of virus). The plates were returned to the tissue culture incubator ([…]; 5% CO2/95% air) and were incubated for a further 96 h.
Following this incubation the endpoint for the virally infected cultures was quantified following addition of Steady-Glo Luciferase assay system reagent (Promega, Madison, Wis.). Cell viability or non-infected cultures was measured using a CellTiter-Glo luminescent cell viability assay system (Promega, Madison, Wis.). All luminescent readouts are performed on a Topcount luminescence detector (Packard, Meridien, Conn.).

| Structure (SMILES) | IC50 [nM] |
| --- | --- |
| CN(C)CCNCc1c(CN(C)C2CCCc3cccnc32)nc2ccccn12 (racemic) [Example 30, N,N-dimethyl-N′-[(2-{[methyl(5,6,7,8-tetrahydro-8-quinolinyl)amino]methyl}imidazo[1,2-a]pyridin-3-yl)methyl]-1,2-ethanediamine] | 100 to 500 |
| CN(Cc1nc2ccccn2c1-c1ccncc1)[C@H]1CCCc2cccnc21 [Example 1, (8S)-N-Methyl-N-{[3-(4-pyridinyl)imidazo[1,2-a]pyridin-2-yl]methyl}-5,6,7,8-tetrahydro-8-quinolinamine] | < 100 |
| CN(Cc1nc2ccccn2c1CCCN)[C@H]1CCCc2cccnc21 [Example 2, (8S)-N-{[3-(3-Aminopropyl)imidazo[1,2-a]pyridin-2-yl]methyl}-N-methyl-5,6,7,8-tetrahydro-8-quinolinamine] | < 100 |
| CN(C)CCCc1c(CN(C)[C@H]2CCCc3cccnc32)nc2ccccn12 [Example 3, (8S)-N-({3-[3-(Dimethylamino)propyl]imidazo[1,2-a]pyridin-2-yl}methyl)-N-methyl-5,6,7,8-tetrahydro-8-quinolinamine] | < 100 |
| CC(C)CNCCCc1c(CN(C)[C@H]2CCCc3cccnc32)nc2ccccn12 [Example 4, (8S)-N-Methyl-N-[(3-{3-[(2-methylpropyl)amino]propyl}imidazo[1,2-a]pyridin-2-yl)methyl]-5,6,7,8-tetrahydro-8-quinolinamine] | < 100 |
| CN(Cc1nc2ccccn2c1-c1cccnc1)[C@H]1CCCc2cccnc21 [Example 5, (8S)-N-Methyl-N-{[3-(3-pyridinyl)imidazo[1,2-a]pyridin-2-yl]methyl}-5,6,7,8-tetrahydro-8-quinolinamine] | 100 to 500 |
| CN(C)Cc1c(CN(C)[C@H]2CCCc3cccnc32)nc2ccccn12 [Example 6, (8S)-N-({3-[(Dimethylamino)methyl]imidazo[1,2-a]pyridin-2-yl}methyl)-N-methyl-5,6,7,8-tetrahydro-8-quinolinamine] | < 100 |
| CN(C)CC(=O)NCc1c(CN(C)[C@H]2CCCc3cccnc32)nc2ccccn12 [Example 7, N^2,N^2-Dimethyl-N^1-{[2-({methyl[(8S)-5,6,7,8-tetrahydro-8-quinolinyl]amino}methyl)imidazo[1,2-a]pyridin-3-yl]methyl}glycinamide] | < 100 |
| CN(Cc1nc2ccccn2c1-c1ccc(N2CCOCC2)nc1)[C@H]1CCCc2cccnc21 [Example 8, (8S)-N-Methyl-N-({3-[6-(4-morpholinyl)-3-pyridinyl]imidazo[1,2-a]pyridin-2-yl}methyl)-5,6,7,8-tetrahydro-8-quinolinamine] | 100 to 500 |
| CN(Cc1nc2ccccn2c1CN1CCCC1)[C@H]1CCCc2cccnc21 [Example 9, (8S)-N-Methyl-N-{[3-(1-pyrrolidinylmethyl)imidazo[1,2-a]pyridin-2-yl]methyl}-5,6,7,8-tetrahydro-8-quinolinamine] | < 100 |
| CN(Cc1nc2ccccn2c1CN1CCOCC1)[C@H]1CCCc2cccnc21 [Example 10, (8S)-N-Methyl-N-{[3-(4-morpholinylmethyl)imidazo[1,2-a]pyridin-2-yl]methyl}-5,6,7,8-tetrahydro-8-quinolinamine] | 100 to 500 |
| CN(C)c1ccc(-c2c(CN(C)[C@H]3CCCc4cccnc43)nc3ccccn23)cn1 [Example 11, (8S)-N-({3-[6-(Dimethylamino)-3-pyridinyl]imidazo[1,2-a]pyridin-2-yl}methyl)-N-methyl-5,6,7,8-tetrahydro-8-quinolinamine] | < 100 |
| CN(Cc1nc2ccccn2c1CN1CCCCC1)[C@H]1CCCc2cccnc21 [Example 12, (8S)-N-Methyl-N-{[3-(1-piperidinylmethyl)imidazo[1,2-a]pyridin-2-yl]methyl}-5,6,7,8-tetrahydro-8-quinolinamine] | < 100 |
| CN(C)C1CCN(Cc2c(CN(C)[C@H]3CCCc4cccnc43)nc3ccccn23)C1 (stereo partly drawn) [Example 13, (8S)-N-[(3-{[3-Dimethylamino-1-pyrrolidinyl]methyl}imidazo[1,2-a]pyridin-2-yl)methyl]-N-methyl-5,6,7,8-tetrahydro-8-quinolinamine] | < 100 |
| CN1CCN(c2ccc(-c3c(CN(C)[C@H]4CCCc5cccnc54)nc4ccccn34)cn2)CC1 [Example 14, (8S)-N-Methyl-N-({3-[6-(4-methyl-1-piperazinyl)-3-pyridinyl]imidazo[1,2-a]pyridin-2-yl}methyl)-5,6,7,8-tetrahydro-8-quinolinamine] | < 100 |
| CN(Cc1nc2ccccn2c1-c1ccc(N2CCCC2)nc1)[C@H]1CCCc2cccnc21 [Example 15, (8S)-N-Methyl-N-({3-[6-(1-pyrrolidinyl)-3-pyridinyl]imidazo[1,2-a]pyridin-2-yl}methyl)-5,6,7,8-tetrahydro-8-quinolinamine] | 100 to 500 |
| CN(C)CCN(C)c1ccc(-c2c(CN(C)[C@H]3CCCc4cccnc43)nc3ccccn23)cn1 [Example 16, N,N,N′-trimethyl-N′-trimethyl-N′-{5-[2-({methyl[(8S)-5,6,7,8-tetrahydro-8-quinolinyl]amino}methyl)imidazo[1,2-a]pyridin-3-yl]-2-pyridinyl}-1,2-ethanediamine] | 500 to 10000 |
| CN(C)C1CCN(c2ccc(-c3c(CN(C)[C@H]4CCCc5cccnc54)nc4ccccn34)cn2)C1 (stereo partly drawn) [Example 18, (8S)-N-[(3-{6-[3-(Dimethylamino)-1-pyrrolidinyl]-3-pyridinyl}imidazo[1,2-a]pyridin-2-yl)methyl]-N-methyl-5,6,7,8-tetrahydro-8-quinolinamine] | 500 to 10000 |
| COCCN(CCOC)Cc1c(CN(C)[C@H]2CCCc3cccnc32)nc2ccccn12 [Example 19, (8S)-N-{[3-({Bis[2-(methyloxy)ethyl]amino}methyl)imidazo[1,2-a]pyridin-2-yl]methyl}-N-methyl-5,6,7,8-tetrahydro-8-quinolinamine] | 100 to 500 |
| CCN(CC)Cc1c(CN(C)[C@H]2CCCc3cccnc32)nc2ccccn12 [Example 20, (8S)-N-({3-[(Diethylamino)methyl]imidazo[1,2-a]pyridin-2-yl}methyl)-N-methyl-5,6,7,8-tetrahydro-8-quinolinamine] | 100 to 500 |
| COCCN(C)Cc1c(CN(C)[C@H]2CCCc3cccnc32)nc2ccccn12 [Example 21, (8S)-N-Methyl-N-{[3-({methyl[2-(methyloxy)ethyl]amino}methyl)imidazo[1,2-a]pyridin-2-yl]methyl}-5,6,7,8-tetrahydro-8-quinolinamine] | 100 to 500 |
| CC(C)N(C)Cc1c(CN(C)[C@H]2CCCc3cccnc32)nc2ccccn12 [Example 22, (8S)-N-Methyl-N-[(3-{[methyl(1-methylethyl)amino]methyl}imidazo[1,2-a]pyridin-2-yl)methyl]-5,6,7,8-tetrahydro-8-quinolinamine] | < 100 |
| CN1CCC(N(C)Cc2c(CN(C)[C@H]3CCCc4cccnc43)nc3ccccn23)C1 (stereo partly drawn) [Example 23, (8S)-N-Methyl-N-[(3-{[methyl(1-methyl-3-pyrrolidinyl)amino]methyl}imidazo[1,2-a]pyridin-2-yl)methyl]-5,6,7,8-tetrahydro-8-quinolinamine] | < 100 |
| CN1CCC(N(C)Cc2c(CN(C)[C@H]3CCCc4cccnc43)nc3ccccn23)CC1 [Example 24, (8S)-N-Methyl-N-[(3-{[methyl(1-methyl-4-piperidinyl)amino]methyl}imidazo[1,2-a]pyridin-2-yl)methyl]-5,6,7,8-tetrahydro-8-quinolinamine] | < 100 |
| CN(CC#N)Cc1c(CN(C)[C@H]2CCCc3cccnc32)nc2ccccn12 [Example 25, (Methyl{[2-({methyl[(8S)-5,6,7,8-tetrahydro-8-quinolinyl]amino}methyl)imidazo[1,2-a]pyridin-3-yl]methyl}amino)acetonitrile] | < 100 |
| CC(C)CN(C)Cc1c(CN(C)[C@H]2CCCc3cccnc32)nc2ccccn12 [Example 26, (8S)-N-Methyl-N-[(3-{[methyl(2-methylpropyl)amino]methyl}imidazo[1,2-a]pyridin-2-yl)methyl]-5,6,7,8-tetrahydro-8-quinolinamine] | 100 to 500 |
| CN(CCC#N)Cc1c(CN(C)[C@H]2CCCc3cccnc32)nc2ccccn12 [Example 27, 3-(Methyl{[2-({methyl[(8S)-5,6,7,8-tetrahydro-8-quinolinyl]amino}methyl)imidazo[1,2-a]pyridin-3-yl]methyl}amino)propanenitrile] | < 100 |
| CN(C)c1cc(-c2c(CN(C)[C@H]3CCCc4cccnc43)nc3ccccn23)ccn1 [Example 28, (8S)-N-({3-[2-(Dimethylamino)-4-pyridinyl]imidazo[1,2-a]pyridin-2-yl}methyl)-N-methyl-5,6,7,8-tetrahydro-8-quinolinamine] | 100 to 500 |
| CN(Cc1nc2ccccn2c1-c1ccnc(N2CCOCC2)c1)[C@H]1CCCc2cccnc21 [Example 29, (8S)-N-Methyl-N-({3-[2-(4-morpholinyl)-4-pyridinyl]imidazo[1,2-a]pyridin-2-yl}methyl)-5,6,7,8-tetrahydro-8-quinolinamine] | 100 to 500 |
